The results in this text go back to PubChem BioAssay (NCI).

Test in all cases: NCI-60 cell line screen, 48 h
The subject of assay [1] is A549 NSCLC.
For assay [2], the system named is ACHN renal.
Assay [3] has as its system COLO 205 colon.
For assay [4], the system named is EKVX NSCLC.
Assay [5] has as its system HOP-92 NSCLC.
Assay [6] relates to HT29 colon.
Assay [7] has as its system LOX IMVI melanoma.
The subject of assay [8] is MALME-3M melanoma.
In assay [9] the test system is SNB-75 CNS.

Structures are written as SMILES.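 Values below derive from 48-hour exposures of cells grown in 96-well plates, with endpoints linearly interpolated between the two concentrations bracketing the appropriate inhibition level. Here, GI50 denotes the concentration required for 50% inhibition of growth. At the TGI there is no net growth.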

`O=C(Nc1ccncc1)C(=O)c1cn(S(=O)(=O)c2ccccc2F)c2ccccc12`: the GI50 is 13.5 µM in assay [1]; 5210 nM in assay [2]; 23.6 µM in assay [3]; 3.72 µM in [4]; 2930 nM in assay [5]; 450 nM in assay [6]. Further, the GI50 in assay [8] and in assay [9] was 1650 nM in each case. Further, the TGI in [1] was 59.8 µM; in [2] it was > 70.9 µM; in assay [3], > 100 µM; in assay [4], > 100 µM; in assay [5] it was 60.2 µM; in assay [6], > 31.9 µM. Further, the figures for the TGI in [7], in assay [8] and in assay [9] were > 100 µM, > 100 µM and 18 µM, respectively.
As for `C=C(CN1CCN(c2ccccc2F)CC1)c1ccc(C(=O)Nc2ccccc2N)cc1`, the GI50 in [1] was 3.52 µM; in assay [2], 2770 nM; in assay [3] it was 2.67 µM; in assay [4], 4.67 µM; in assay [5], 611 nM; in assay [6], 1190 nM. Moreover, the GI50 in assay [7] was 1530 nM; in assay [8], 1530 nM; in assay [9], 2270 nM. Besides, the TGI was 35.4 µM in assay [1]; > 100 µM in [2]; 11.1 µM in [3]; > 100 µM in [4]; 5.55 µM in [5]; 4.37 µM in assay [6]. Also, the TGI is 24.4 µM in assay [7], > 100 µM in assay [8] and 8.14 µM in assay [9].
In the case of `CN(/N=N/c1nc(OCc2ccccc2)c2[nH]cnc2n1)C(=O)N(C)/N=N/c1nc(OCc2ccccc2)c2[nH]cnc2n1`, the GI50 is 56 µM in assay [1]; 31300 nM in assay [2]; 37.5 µM in [3]; 38.3 µM in assay [4]; 29900 nM in assay [5]; 60500 nM in assay [6]. The GI50 in assay [7] is 37000 nM; in assay [8], 40800 nM; in assay [9], > 100000 nM. The TGI in assay [1], in [2], in [3], in [4], in assay [5] and in assay [6] was > 100 µM throughout. Besides, the TGI in assay [7], in assay [8] and in [9] was > 100 µM each time.
Take `Cc1cc2c(c(C#N)c1C)NC(=O)C(CC(=O)O)C2=O` (stereo not drawn): the TGI in [1], in assay [2], in assay [3], in assay [4], in [5] and in assay [6] was > 100 µM throughout. In addition, the TGI in assay [7], in assay [8] and in assay [9] was > 100 µM each time.
With `CCCCC(=O)[O-].N.N.N.N.N.[Co+3].[O-][Cl+3]([O-])([O-])[O-]`, the GI50 in [1] was > 100 µM; in assay [2], > 100000 nM; in [3], > 100 µM; in assay [4] it was > 100 µM; in assay [5] it was > 100000 nM; in assay [6], > 100000 nM. For the same compound, the figures for the GI50 in [7], in [8] and in assay [9] were > 100000 nM, > 100000 nM and 49300 nM, respectively. In addition, the TGI in assay [1], in assay [2], in assay [3], in assay [4], in assay [5] and in [6] was > 100 µM throughout. In addition, the TGI in assay [7], in assay [8] and in assay [9] was > 100 µM in each case.
`CCOC(=O)C#Cc1ccc(C#CC(=O)OCC)cc1`: the TGI is > 37.5 µM in assay [1]; > 21.3 µM in assay [2]; 16.5 µM in [3]; > 24.7 µM in assay [4]; > 31.7 µM in assay [5]; 5.27 µM in assay [6]. In addition, the TGI in assay [7] was > 22.1 µM; in assay [8], 21.3 µM; in assay [9], 0.609 µM.
Turning to `N#CC1(c2nc3ccccc3o2)C(=O)C(=O)N(c2ccc(Cl)c(Cl)c2)C(=O)C1=O`, the TGI in assay [1], in [2], in assay [3], in [4], in assay [5] and in [6] was > 100 µM throughout. Further, the TGI in assay [7], in [8] and in [9] was > 100 µM throughout.
As for `Cc1nc(Nc2ccc(F)c(Cl)c2)sc1C(=O)O`, the GI50 in assay [1] is 1.68 µM; in [2], 1520 nM; in assay [3], 1.64 µM; in [4], 0.865 µM; in assay [5], 877 nM; in assay [6] it was 1670 nM. Besides, the values for the GI50 in assay [7], in assay [8] and in assay [9] were 1510 nM, 1650 nM and 1180 nM, respectively. Further, the TGI in assay [1] came out at 3.81 µM; in assay [2], 3.24 µM; in assay [3], 3.2 µM; in assay [4], 5.76 µM; in assay [5], 2.74 µM; in [6] it was 3.44 µM. Besides, the TGI was determined as 2.91 µM in assay [7], 3.71 µM in [8] and 4.31 µM in [9].
As to `Cc1nc(NC(=S)Nc2ccc(F)cc2)sc1C(=O)NNC(=S)Nc1ccc(F)cc1`, the GI50 in assay [1] was 5.29 µM; in assay [3] it was 7.11 µM; in assay [4], 4.61 µM; in assay [5] it was 1490 nM; in assay [6] it was 8580 nM; in assay [8], 13100 nM. The GI50 in assay [9] was 15300 nM. In addition, the TGI in assay [1] was 45.5 µM; in assay [3], 20 µM; in assay [4], > 100 µM; in assay [5], 7.25 µM; in assay [6] it was 25.3 µM; in [8], 35.5 µM. This compound yielded a TGI in assay [9] of 54.7 µM.
With `Cl.Fc1c[c-]c(-c2ccccn2)c(F)c1.[Pt].c1ccc([PH+](CC[PH+](c2ccccc2)c2ccccc2)c2ccccc2)cc1`, the GI50 in assay [2] was 271 nM; in assay [5], 121 nM; in [8], 61 nM; in [9] it was 23.4 nM. In addition, the TGI in assay [2] amounted to 0.993 µM; in assay [5], 0.422 µM; in assay [8] it was 0.409 µM; in assay [9], 0.534 µM.
